In patent publication US20250122202A1, “EGFR INHIBITOR, PREPARATION METHOD THEREFOR AND USE THEREOF” (SHANDONG NEW TIME PHARMACEUTICAL CO., LTD., priority 2021, published 2025):

Columns and labels:
[1] = system: KC-1474 cell subcutaneous transplantation tumor; assay: In-vivo drug efficacy study, KC-1474 cell subcutaneous transplantation tumor in NPG mice; conditions: for tumor volume inhibition rate (TGITV) / tumor weight inhibition rate (TGITW): 39 days, end of experiment
Description: Female SPF NPG mice weighed 19-22 g were used. The experimental animals were provided by Beijing Vitalstar Biotechnology Co., Ltd. with the experimental animal production license number SCXK (Jing) 2019-0002 and the experimental animal quality certification number of No.110341211100087928.
KC-1474 cells used in the experiment were cultured in a 5% CO2 37° C. incubator with an RPMI1640 medium supplemented with 10% FBS and […] of puromycin. Before the cells were continuously cultured for ten passages, the KC-1474 cells were adjusted to a concentration of 1×10^8/mL, and mixed with Matrigel at a volume ratio of 1:1, and the mixture was inoculated subcutaneously into the right lateral thorax of the NPG mice at 0.1 mL/mouse with 5×10^6 cells per mouse.
When the mean tumor volume of the mice reached about 100-130 mm^3, according to the tumor volume and weight, all the mice were randomly divided into […] group respectively: a model group (V), an example 60 compound oral administration group (po), an example 60 compound intravenous injection low-dose group (L), and an example 60 compound intravenous injection medium-dose group (M). The mice in all the groups were administrated once daily. The administration started on the day of the grouping and continued for 39 days. The mice in the model group were intravenously injected with the same volume of a solvent. The solvent was prepared by adding 2 g of polyethylene glycol-15 hydroxystearate (HS15) into 4 mL of dimethyl sulfoxide (DMSO), then adding 40 mL of purified water, and filtering an obtained mixture by using a 0.22-μm sterilizing filter. At the end of the experiment or the humane endpoint, the animals were euthanized using sodium pentobarbital for anesthesia.
Tumor volume was measured once during the grouping, once per week after the grouping using a vernier caliper, and before the euthanasia. A method for measuring the tumor volume was measuring the long diameter and the short diameter of a tumor using the vernier caliper.
The tumor volume was calculated by the formula: tumor volume=0.5×long diameter×short diameter^2.
(Ti: mean tumor volume of mice in the treatment groups on day i of the administration and T0: mean tumor volume of the mice in the treatment group on day 0 of the administration; and Vi: mean tumor volume of the mice in the model group on day i of the administration and V0: mean tumor volume of the mice in the model group on day 0 of the administration).
At the end of the experiment, the tumor tissue was stripped after the animals were euthanized, the tumor weight was weighed, and the tumor weight inhibition rate was calculated according to the following formula:
TGITW(%)=(Wmodel group−Wtreatment group)/Wmodel group×100%, wherein the W means tumor weight.
Original data was analyzed and the results were expressed as mean±standard deviation (mean±SD). At the same time, the tumor volume and the tumor weight were subjected to statistical analysis. AP<0.05 was considered to be a significant difference.

[2] = target: EGFR-Del19/T790M/C797S kinase (Homo sapiens, UniProt P00533, C797S/T790M, form not given); assay: In-vitro enzyme experiment 2 (HTRF kinase assay), EGFR Del19 T790M C797S; assay type: biochemical; conditions: read-out: enzyme inhibition IC50 (nM) EGFR-Del19/T790M/C797S
Outline: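 Enzyme pre-incubated with compound for 10 min, then reaction started with biotinylated TK substrate (2 μM in the 2× mix) plus ATP. Ran 40 min at room temperature; phosphorylation detected by HTRF (Sa-XL665/TK-antibody-cryptate, 665/615 nm ratio). IC50 by variable-slope non-linear regression of inhibition versus log concentration.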

[3] = system: KC-1362 BaF3-EGFR D770-N771 ins NPG cells; assay: Anti-proliferative activity on KC-1362 BaF3-EGFR D770-N771 ins NPG cells; assay type: cell-based; conditions: Ba/F3 EGFR
[4] = system: KC-1474:PC-9 EGFR-Del19/T790M/C797S; assay: Cell proliferation inhibition experiment (CCK-8), KC-1474; assay type: cell-based; conditions: Homo sapiens, 72 h
Text: Inhibition rate %=[(A0−AS)/(A0−AC)]×100%.

[5] = target: EGFR D770-N771 ins NPG kinase (Homo sapiens (Human), UniProt P00533, INS770NPG); assay: In-vitro enzyme experiment 1 (HTRF kinase assay), D770-N771 ins NPG kinase; assay type: biochemical
EGFR D770-N771 ins NPG kinase, sequence (P00533 other isoform, or with tags, fused parts or gaps del 1-668/ins NPG behind 770 limits assumed): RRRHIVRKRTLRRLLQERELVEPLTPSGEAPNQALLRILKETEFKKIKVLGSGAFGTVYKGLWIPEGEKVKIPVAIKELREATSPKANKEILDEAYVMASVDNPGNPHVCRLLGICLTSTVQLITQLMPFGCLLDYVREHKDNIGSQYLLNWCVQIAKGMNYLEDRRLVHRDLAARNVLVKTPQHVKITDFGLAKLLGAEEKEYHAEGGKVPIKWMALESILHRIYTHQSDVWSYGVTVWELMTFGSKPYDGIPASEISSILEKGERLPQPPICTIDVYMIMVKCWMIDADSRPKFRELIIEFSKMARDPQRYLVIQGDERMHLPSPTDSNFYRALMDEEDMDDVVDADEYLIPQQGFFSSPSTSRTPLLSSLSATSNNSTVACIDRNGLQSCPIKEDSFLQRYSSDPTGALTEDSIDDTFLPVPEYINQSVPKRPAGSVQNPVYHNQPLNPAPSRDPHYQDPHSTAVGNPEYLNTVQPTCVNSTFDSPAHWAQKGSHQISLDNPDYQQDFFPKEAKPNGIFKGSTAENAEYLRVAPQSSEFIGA

EGFR-Del19/T790M/C797S kinase, sequence (P00533 25-1210 T790M/C797S limits assumed, form open): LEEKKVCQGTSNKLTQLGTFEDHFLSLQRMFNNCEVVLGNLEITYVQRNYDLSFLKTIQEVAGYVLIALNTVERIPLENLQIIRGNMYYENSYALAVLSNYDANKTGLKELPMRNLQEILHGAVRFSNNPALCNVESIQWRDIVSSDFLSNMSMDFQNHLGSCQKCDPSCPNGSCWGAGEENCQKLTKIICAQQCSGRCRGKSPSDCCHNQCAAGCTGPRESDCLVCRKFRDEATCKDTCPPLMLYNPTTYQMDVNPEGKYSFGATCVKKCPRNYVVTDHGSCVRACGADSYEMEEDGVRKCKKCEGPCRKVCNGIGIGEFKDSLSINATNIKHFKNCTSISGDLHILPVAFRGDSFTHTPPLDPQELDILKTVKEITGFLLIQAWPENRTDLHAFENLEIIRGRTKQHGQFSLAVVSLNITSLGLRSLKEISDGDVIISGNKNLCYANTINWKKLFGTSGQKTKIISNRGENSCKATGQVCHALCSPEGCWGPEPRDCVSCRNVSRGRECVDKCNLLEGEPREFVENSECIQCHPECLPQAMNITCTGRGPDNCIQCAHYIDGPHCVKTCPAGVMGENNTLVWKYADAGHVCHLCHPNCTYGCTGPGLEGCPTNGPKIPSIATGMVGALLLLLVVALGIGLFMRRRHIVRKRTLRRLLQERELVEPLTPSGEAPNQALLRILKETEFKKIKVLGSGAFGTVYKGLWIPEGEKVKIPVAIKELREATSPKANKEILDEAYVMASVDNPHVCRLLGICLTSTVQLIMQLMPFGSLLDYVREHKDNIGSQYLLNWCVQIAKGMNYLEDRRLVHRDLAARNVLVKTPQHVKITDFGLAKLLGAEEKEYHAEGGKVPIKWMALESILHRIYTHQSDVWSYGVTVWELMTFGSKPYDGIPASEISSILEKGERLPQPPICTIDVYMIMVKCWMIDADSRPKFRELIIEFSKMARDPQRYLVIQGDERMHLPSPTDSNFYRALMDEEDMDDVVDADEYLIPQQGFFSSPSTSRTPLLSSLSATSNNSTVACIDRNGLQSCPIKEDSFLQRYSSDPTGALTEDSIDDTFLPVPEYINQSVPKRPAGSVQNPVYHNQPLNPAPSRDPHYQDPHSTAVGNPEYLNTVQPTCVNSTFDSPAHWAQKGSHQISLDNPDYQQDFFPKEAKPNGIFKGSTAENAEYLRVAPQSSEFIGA

animal condition during the administration and observation ([1]; all groups, qd for 39 days): no diarrhea, vomiting, or rash | IC50 [2]: < 10 nM | IC50 [3]: 70 nM | IC50 [4]: < 0.1 µM | IC50 [5]: 2.82 nM
SMILES: CN1CCN(c2ccc(Nc3nc(N[C@H]4CC[C@@H](CO)CC4)c4c(C(=O)c5ccc(F)cc5)c[nH]c4n3)cc2)CC1 [Example 60]
tumor volume inhibition rate (TGITV) ([1]; L group, 3 mg/kg qd iv): 31% | tumor weight inhibition rate (TGITW) ([1]; L group, 3 mg/kg qd iv): 22% | tumor volume inhibition rate (TGITV) ([1]; M group, 10 mg/kg qd iv): 57% | tumor weight inhibition rate (TGITW) ([1]; M group, 10 mg/kg qd iv): 61% | tumor volume inhibition rate (TGITV) ([1]; po group, 20 mg/kg qd po): 28% | tumor weight inhibition rate (TGITW) ([1]; po group, 20 mg/kg qd po): 21%
